What all share (test): NCI anticancer screen, dose series, 48 h
Test [1] relates to 786-0.
Test [2] concerns EKVX.
Test [3] deals with MDA-N.
Test [4] relates to NCI-H226.
Test [5] has as its system LOX IMVI.
Test [6] relates to IGROV-1.
The subject of test [7] is DU-145.
For test [8], the system named is SF-268.
Test [9] concerns HOP-92.
Test [10] relates to UACC-257.
Test [11] deals with A549.
The subject of test [12] is SF-295.
Test [13] deals with HCC 2998.
Test [14] deals with OVCAR-3.
Test [15] relates to HL-60.
The subject of test [16] is NCI/ADR-RES.
Test [17] concerns HCT-15.
Test [18] deals with COLO 205.
Test [19] relates to U-251.
The test system of test [20] is MDA-MB-435.

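Each compound was tested at five concentrations against cells in 96-well plates for 48 hours. Here, GI50 denotes the concentration required for 50% inhibition of growth.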 Activity calls are given as the source filed them. No stated cut-off is given here; in the data, active = GI50 up to about 1.1 µM and inactive = higher.

The values below come from ChEMBL document CHEMBL1201862, “PubChem BioAssay data set” (2004).

As for `CCOC(=O)C1=C(C)N(C)C(=S)NC1c1cccc(O)c1` (stereo not drawn), the GI50 in [1] is 37.9 µM (inactive); in [2], 24.1 µM (inactive); in test [3], 14.6 µM (inactive); in test [4], 47.9 µM (inactive); in [5] it was 70.3 µM (inactive); in test [6], 21.1 µM (inactive). Besides, the GI50 was 57.3 µM (inactive) in test [7]; 62.5 µM (inactive) in test [8]; 22.9 µM (inactive) in test [9]; 43.3 µM (inactive) in test [10]; 36.6 µM (inactive) in test [11]; 25.9 µM (inactive) in [12]. The GI50 in test [13] is 34 µM (inactive); in test [14], 36.1 µM (inactive); in test [15], 17.8 µM (inactive); in [16], 18.7 µM (inactive); in test [17], 30.3 µM; in test [18], 31.8 µM (inactive). For the same compound, the GI50 in test [19] was 34.8 µM (inactive); in test [20] it was 12.5 µM (inactive).
Consider `CC(C)=CCC[C@@H](C)c1c2ncc[nH]c-2c(C)c(=O)c1O`, for which the GI50 is 39.4 µM (inactive) in test [1]; 26.2 µM (inactive) in test [2]; 37.8 µM (inactive) in test [3]; 16.9 µM (inactive) in test [4]; 25.1 µM (inactive) in [5]; 26.7 µM (inactive) in test [6]. Further, the GI50 in test [7] is 31.6 µM (inactive); in test [8], 15.2 µM (inactive); in test [9], 23.8 µM (inactive); in test [10], 31.9 µM (inactive); in test [11], 22.1 µM (inactive); in [12], 16.5 µM (inactive). The GI50 was 31.9 µM (inactive) in test [13]; 27.4 µM (inactive) in test [14]; 7.03 µM (inactive) in test [15]; 4.49 µM (inactive) in test [16]; 6.46 µM in test [17]; 28.8 µM (inactive) in test [18]. Besides, the values for the GI50 in [19] and in test [20] were 43.6 µM (inactive) and 41.9 µM (inactive), respectively.
For the compound `CN(C)Cc1cc(/N=N/c2ccccc2Cl)ccc1O`, the GI50 in [1] was 15.5 µM (inactive); in [2], 49.3 µM (inactive); in [3], 17.5 µM (inactive); in [4], 16.1 µM (inactive); in test [5], 12.6 µM (inactive); in test [6], 25.8 µM (inactive). The GI50 in [7] is 23.5 µM (inactive); in test [8] it was 25.1 µM (inactive); in test [9], 17.1 µM (inactive); in test [10] it was 21.1 µM (inactive); in test [11] it was 9.12 µM (inactive); in [12], 16.6 µM (inactive). The GI50 in test [13] was 13.5 µM (inactive); in test [14], 18 µM (inactive); in [15], 10.8 µM (inactive); in test [16], 25.4 µM (inactive); in [17], 20.1 µM; in test [18], 13.4 µM (inactive). Also, the GI50 is 23.7 µM (inactive) in test [19] and 17.7 µM (inactive) in test [20].
Turning to `O=C(Cc1nc2ccccc2[nH]c1=O)c1c[nH]c2ccccc12`, the GI50 was 13.9 µM (inactive) in test [1]; 29.6 µM (inactive) in test [2]; 12.1 µM (inactive) in [3]; 11.9 µM (inactive) in test [4]; 13.7 µM (inactive) in [5]; 20.3 µM (inactive) in test [6]. In addition, the GI50 is 15.2 µM (inactive) in test [7]; > 100 µM (inactive) in [8]; 23.2 µM (inactive) in test [9]; 23.8 µM (inactive) in test [10]; 10.9 µM (inactive) in test [11]; 9.04 µM (inactive) in [12]. Besides, the GI50 in test [13] is 13.3 µM (inactive); in [14], 14 µM (inactive); in test [15], 10.3 µM (inactive); in test [16], 8.65 µM (inactive); in test [17], 8.18 µM; in test [18], 11.1 µM (inactive). In addition, the GI50 in [19] and in test [20] was 13.7 µM (inactive) in each case.
For `O=C1CN2CCN(CC2)CC(=O)Nc2ccc(cc2)S(=O)(=O)c2ccc(cc2)NC(=O)CN2CCN(CC2)CC(=O)Nc2ccc(cc2)S(=O)(=O)c2ccc(cc2)N1`, the GI50 in test [1] was 33.3 µM (inactive); in test [2], > 100 µM (inactive); in test [3] it was 41.8 µM (inactive); in [4], 64.7 µM (inactive); in [5] it was 11 µM (inactive); in test [6] it was 13.8 µM (inactive). For the same compound, the GI50 in test [7] was 51.6 µM (inactive); in test [8], 19 µM (inactive); in test [9], > 100 µM (inactive); in [10] it was > 100 µM (inactive); in test [11], > 63.2 µM (inactive); in test [12], > 88.7 µM (inactive). Besides, the GI50 in test [13] was > 61.9 µM (inactive); in test [14] it was 27.9 µM (inactive); in test [15], 0.557 µM (active); in [16] it was 37.3 µM (inactive); in [17], 13.4 µM; in test [18] it was 40.7 µM (inactive). Moreover, the GI50 is 13.7 µM (inactive) in [19] and 35.2 µM (inactive) in test [20].
As to `CC(=O)OC12CC(C)C3(O)C4C=C(C)C(=O)[C@@]4(O)CC(CO)=C[C@H]3C1C2(C)C` (stereo partly drawn), the GI50 in [1] was > 10 µM (inactive); in test [2], > 10 µM (inactive); in [3], 2.69 µM (inactive); in test [4] it was > 10 µM (inactive); in [5], > 10 µM (inactive); in test [6] it was > 10 µM (inactive). Besides, the GI50 in [7] is > 10 µM (inactive); in test [8], > 10 µM (inactive); in test [9], 65.8 µM (inactive); in test [10], > 10 µM (inactive); in test [11], 2.38 µM (inactive); in test [13] it was 4.21 µM (inactive). Also, the GI50 in test [14] is > 10 µM (inactive); in test [15] it was 0.887 µM (active); in test [16] it was > 10 µM (inactive); in test [17] it was above 10 µM; in test [18] it was 1.88 µM (inactive); in test [19] it was > 10 µM (inactive). Moreover, the GI50 in test [20] is 3.67 µM (inactive).
On to `O=C(O)Cc1c[nH]c2ccc(F)cc12`, for which the GI50 in test [1], in test [2], in [3], in test [4], in test [5] and in [6] was > 100 µM (inactive) each time. The GI50 in test [7], in test [9], in [10], in test [11], in test [12] and in test [13] was > 100 µM (inactive) in each case. Further, the GI50 in test [14] was > 100 µM (inactive); in [15], > 100 µM (inactive); in [16], > 100 µM (inactive); in test [17], above 100 µM; in test [18] it was > 100 µM (inactive); in [19], > 100 µM (inactive). Also, the GI50 in test [20] was > 100 µM (inactive).
